Assay results from paper PMC8795149, “Characterization of a novel non-steroidal glucocorticoid receptor agonist optimized for topical treatment” (Scientific Reports, 2022).

Assays:
HPA axis = tested on: HPA axis; design: method as in PMID 3553247; conditions: topical; cited from earlier work
[1] = Hepatocyte stability (rat); assay type: in vitro ADME; conditions: predicted hepatic clearance, well stirred model
Method: (§1) Compounds (1.0 µM) were incubated in duplicates with rat, dog, minipig or human hepatocytes (1.0 million cells/mL) in phosphate buffer, in 96-well plates for 120 min (37 °C). Reactions were stopped by addition of cold acetonitrile, at 0, 10, 30, 60, and 120 min, and dispensed into cold acetonitrile to stop the reactions. Plates were centrifuged for 30 min and samples were analysed using liquid chromatography coupled to a time-of-flight mass spectrometer. Compound depletion over time was used to estimate the elimination rate constant, from which the apparent intrinsic clearance (CLapp), and half-life (t½), were calculated.

[2] = Hepatocyte stability (minipig); assay type: in vitro ADME; conditions: predicted hepatic clearance, well stirred model
Method: as §1

[3] = In vivo pharmacokinetics in dog, i.v.
Method: The pharmacokinetic profile of LEO 134310 was determined in rat (male Sprague Dawley) and dog (female Beagle) after intravenous (i.v.) injection at 1 mg/kg. LEO 134310 was administered in isotonic cyclodextrin solution at 0.5 mg/mL (0.1% Citrate buffer pH 4, 20% hydroxy-propyl-β-cyclodextrin in 0.2% NaCl). The i.v. dose was given as a bolus in rats and as a slow injection over 2 min in dogs. The dosing volume was 2 mL/kg. Blood was immediately diluted after sampling in an inhibitory cocktail containing acetylcholinesterase inhibitor Dichlorvos [1 mg/mL in an 8 mg/mL K2EDTA solution in phosphate buffer (PBS)] and samples were stored at − 80 °C until analysis. Samples were analyzed by LC–MS/MS using an API 5500/API 6500 QTRAP mass spectrometer. Pharmacokinetic parameters were derived from a non-compartment model in Phoenix64 (Pharsight, Certara).

[4] = Predicted clearance and half-life in man by allometric scaling of clearance in dogs; design: species or system human
Description: To evaluate allometric scaling, actual clearance in dog and man were extracted from the literature for 6 ester drugs[27]–[38].

[5] = target: T1, recombinant human full-length GR (Homo sapiens, UniProt P04150); experiment: GR binding assay (fluorescence polarization); conditions: Fluormone GS1
T1 construct: 4 nM recombinant human full-length GR (Thermo Fisher); purchased Thermo Fisher
T1 sequence (P04150 1-777): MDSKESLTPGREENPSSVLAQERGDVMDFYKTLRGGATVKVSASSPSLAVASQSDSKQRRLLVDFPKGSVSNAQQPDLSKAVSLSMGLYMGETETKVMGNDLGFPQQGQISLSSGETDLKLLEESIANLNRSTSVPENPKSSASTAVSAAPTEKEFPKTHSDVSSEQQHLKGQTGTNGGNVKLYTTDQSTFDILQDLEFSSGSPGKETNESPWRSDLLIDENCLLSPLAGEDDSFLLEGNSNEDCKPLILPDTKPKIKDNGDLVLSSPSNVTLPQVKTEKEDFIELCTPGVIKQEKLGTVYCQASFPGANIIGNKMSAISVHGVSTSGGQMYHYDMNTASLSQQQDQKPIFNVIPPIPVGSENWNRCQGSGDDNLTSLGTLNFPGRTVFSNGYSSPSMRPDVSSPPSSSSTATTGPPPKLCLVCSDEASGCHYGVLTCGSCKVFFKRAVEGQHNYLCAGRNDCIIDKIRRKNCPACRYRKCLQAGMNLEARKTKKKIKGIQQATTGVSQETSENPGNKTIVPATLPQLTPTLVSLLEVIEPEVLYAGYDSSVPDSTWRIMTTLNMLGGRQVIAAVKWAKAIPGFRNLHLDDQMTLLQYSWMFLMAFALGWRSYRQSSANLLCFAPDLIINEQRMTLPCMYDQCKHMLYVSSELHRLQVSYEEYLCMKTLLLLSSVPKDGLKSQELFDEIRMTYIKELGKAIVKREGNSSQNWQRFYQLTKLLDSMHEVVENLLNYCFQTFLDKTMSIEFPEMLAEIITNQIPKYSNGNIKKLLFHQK
Method: Binding of GR agonists to human GR was evaluated in a fluorescence polarization assay. 2.5 nM Fluormone GS1 (Thermo Fisher) and 4 nM recombinant human full-length GR (Thermo Fisher) were incubated in the presence of individual test and control compounds. Changes in polarization values were used to determine the relative affinity of test compounds for the GR.

[6] = tested on: PPAR-alpha, LXR-beta, RAR-alpha, RXR-alpha, ER-alpha, PR, AR, ER-beta and TR; experiment: Selectivity screening on nuclear receptors, radioligand binding (CEREP); design: species or system human; conditions: 10µM; greater than 25% displacement considered significant
Method: Selectivity screening on nuclear receptors – Studies were performed at CEREP using their proprietary assays for human PPARalpha, LXRbeta, RARalpha, RXRalpha, ERalpha, ERbeta, progesterone receptor, androgen receptor and thyroid hormone receptor employing specific, radiolabeled agonist ligands. Interactions leading to greater than 25% displacement of the radiolabeled agonist ligand were considered significant. Concentrations of LEO 134310 and LEO 134998 were 10µM.

[7] = Compound concentration in dermis, human skin explants; assay type: in vitro ADME; conditions: 24 h, propylene carbonate
Method: NativeSkin models (NS002) were purchased from Genoskin, France. Human skin samples from abdominal reduction surgery were obtained by Genoskin from donors upon written informed consent. Full ethical approval for the study protocol was obtained from the French ethical research committee (Comité de Protection des Personnes), and authorization was given by the French Ministry of Research. The study was conducted according to the Declaration of Helsinki. 8 mm punch biopsies were excised and embedded in a fibrin-based matrix in transwells and a silicone ring was firmly attached to the surface covering the outer edge of the skin biopsy to prevent lateral diffusion of topically applied formulations. […]
The concentrations of the compounds in dermis were determined from skin biopsies from the human skin explants. […] After homogenization, the samples were diluted, centrifuged and precipitated with acetonitrile containing internal standard (IS), and the compounds were thereafter quantified by means of liquid chromatography-tandem mass spectrometry (LC-MS/MS) using an AB Sciex 5500 or 6500 QTRAP. Calibration curves were prepared by spiking the analytes in blank homogenate, and a generic IS were used in quantification. The dermis micro molar concentrations were calculated assuming 1 gram of skin tissue equal to 1 mL.

SMILES	Effect on morning plasma cortisol (HPA axis)	In vitro (hepatocytes) CLH [1]	In vitro (hepatocytes) CLH [2]	In vivo clearance relative to liver blood flow [3]	In vivo clearance ([3]; i.v. 1 mg/kg)	In vivo terminal half-life ([3]; i.v. 1 mg/kg)	Predicted clearance in man ([4]; allometric scaling of clearance in dogs, scaling factor 0.75)	Predicted half-life in man ([4]; corresponding to predicted clearance)	EC50 [5]	Interaction with nine nuclear hormone receptors in specific binding assays [6]	Higher dose needed to achieve similar dermis concentrations compared to BMV [7]	Higher dose needed to achieve similar dermis concentrations compared to CP [7]
CCC(=O)O[C@]1(C(=O)CCl)[C@@H](C)C[C@H]2[C@@H]3CCC4=CC(=O)C=C[C@]4(C)[C@@]3(F)[C@@H](O)C[C@@]21C [CP, Clobetasol Propionate]	reduce morning plasma cortisol significantly											
C[C@H](NC(=O)[C@H]1CCCO1)[C@H](Oc1ccc(C(=O)O[C@H]2CCCN(C(=O)[C@H]3COC(=O)C3)C2)cc1)c1ccc(C2CC2)cc1 [LEO 134310]		57 (n = 1) mL/min/kg	> 35 (n = 1) mL/min/kg	15 fold	470 ± 97 (n = 3) mL/min/kg	11 ± 1.2 (n = 3) min	300 mL/min/kg	< 5 min	14 nM	no significant interaction	3 fold	7 fold
